Data reported in EP0308983A2, “NMR imaging with Mn(II) coordination compositions” (priority 1987, dated 1989).
Several values for one entry are separate records, joined by “and”; a condition that tells them apart may be missing. Identical values can stand only once.

What was measured:
[1] = test system: New Zealand white rabbits; settings: rabbit, 1.5 T
Description: A General Electric Signa Magnetic Resonance Imaging System, operating at 1.5 T, and using a knee surface coil was used. New Zealand white rabbits (ca. 2.5 kg wt.) were used for imaging. […] With these instrument settings, an image could be acquired in about 1.3 min. Images of the rabbit kidney and liver were taken before injection and at 1, 3, 6, 8, 12, 16, 21, 26, 36, 46, and 56 min intervals after injection.
Schematic drawings of the images before injection and at intervals of 10 and 60 minutes are show in Fig. 1, 2 and 3, respectively.

[2] = test system: New Zealand white rabbit
Description: This solution was infused into a New Zealand white rabbit (3.1 kg wt.) at 0.065 mmole/kg/min for 5 min to achieve a total dose of […]. […] 15 Min after the infusion, the rabbit was sacrificed by lethal pentobarbitol injection, and the heart and liver were removed. Samples of these organs were tested for relaxation time at 0.15 T with a RADX spectrometer (Houston, TX).
At a lower dose level (0.10 mmole/kg), the effects of a rapid bolus injection (10 sec) or a slow infusion (over 5 min) were tested in two New Zealand white rabbits. 15 Min after the end of the infusion or injection, the animals were sacrificed and T₁ and T₂ values were measured on 4-16 individual samples of kidney, liver and heart tissue.

[3] = test system: Rats; settings: IV, standard conditions, 10 animals per dosage group
Source text: The doses were 0.3, 0.5, and 0.8 mmole/kg. 10 Animals were used in each dosage group.

[4] = Plasma clearance: plasma T₁ and T₂ times after injection; type: in vivo; settings: rabbit, 0.1 mmole/kg; for plasma T₁ / plasma T₂: 0.15 T
Description: A dose of 0.1 mmole/kg of GdDTPA was injected into a rabbit and blood samples were drawn at 10 min intervals for 50 min. The blood was centrifuged, and the plasma T₁ and T₂ times were measured at 0.15 T with a RADX PROTON SPIN ANALYZER (Houston, TX).

[5] = Stability of aqueous solutions after addition of a NaOH solution; settings: ratio of OH⁻ to compound of 0.2; 161 mM (glycine) or 167 mM (gluconate) aqueous solution
Description: NMR contrast agents must be stable in solution under adverse conditions to be effective as pharmaceutical agents.
One ml of a 161 mM solution (initial pH 5) was placed in a test tube at 19°C. Sodium hydroxide (0.032 ml; 1 N) was added to the solution, giving a ratio of OH⁻ to compound of 0.2.
[Manganese(II)·(H₂O)₂·(gluconate)₂]⁺²(Cl₂)⁻² was prepared according to the procedure of Example 24. Deionized water was added to form a 167 mM clear solution. One mole equivalent of sodium hydroxide solution was added to five mole equivalents of the [manganese(II)·(H₂O)₂·(gluconate)₂]⁺²(Cl₂)⁻² solution, giving a ratio of OH⁻ to compound of 0.20.

[6] = Paramagnetic relaxation properties in human plasma at 37°C; type: physicochemical
[7] = Paramagnetic relaxation properties in water at 10 MHz (0.15T), RADX spin analyzer; type: physicochemical; settings: 10 MHz (0.15T)
Outline: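 Mn(II) complexes in water were measured after thermal equilibrium at 37°C. T₁ (spin-lattice) and T₂ (spin-spin) relaxation values were recorded, in triplicate where stated.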

[8] = 0.10 mmole/kg, bolus (10 sec), 15 min after, mean of samples
[9] = 0.10 mmole/kg, slow infusion (over 5 min), 15 min after, mean of samples
[10] = infusion 0.065 mmole/kg/min for 5 min, total dose 0.31 mole/kg, 15 min after infusion, 0.15 T
[11] = 37°C, repeat measurement 80 minutes later
[12] = 0.99 mM solution in water, 37°C, triplicate, mean +/- SD

NCC(=O)O.NCC(=O)O.O.O.[Cl-].[Cl-].[Mn+2] [[Manganese(II)·(H₂O)₂·(glycine)₂]⁺²(Cl₂)⁻²]
liver parenchyma image intensity ([1]; image after one hour (60 min)): returned to normal intensity | enhancement of the liver and parenchyma in the image ([1]; one min after injection, doses of 10 and 20 µmole/kg, Spin Echo TR = 300 msec, TE = 20 msec): over 100% | Heart T₁, Bolus Injection, Mean [2, 8]: 156 ms | Heart T₂, Bolus Injection, Mean [2, 8]: 40 ms | Kidney T₁, Bolus Injection, Mean [2, 8]: 109 ms | Kidney T₂, Bolus Injection, Mean [2, 8]: 40 ms | Liver T₁, Bolus Injection, Mean [2, 8]: 51 ms | Liver T₂, Bolus Injection, Mean [2, 8]: 18 ms | Liver T₂, Infusion ([2]; 0.10 mmole/kg, slow infusion (over 5 min), 15 min after, individual tissue samples): 15 msec (2×) and 11 msec and 20 msec | Heart T₁, Infusion, Mean [2, 9]: 179 ms | Heart T₂, Infusion, Mean [2, 9]: 41 ms | Kidney T₁, Infusion, Mean [2, 9]: 120 ms | Kidney T₂, Infusion, Mean [2, 9]: 45 ms | Liver T₁, Infusion, Mean [2, 9]: 39 ms | Liver T₂, Infusion, Mean [2, 9]: 15 ms | tolerance of the infusion ([2]; infusion 0.065 mmole/kg/min for 5 min, total dose 0.31 mole/kg): tolerated the infusion without outward signs of a pharmacologic or toxicologic effect | heart T₁ [2, 10]: 45 ms | heart T₂ [2, 10]: 21 ms | liver T₁ [2, 10]: 19 ms | liver T₂ [2, 10]: 10 ms | LD₅₀ [3]: 0.70 mmol/kg | time for which the plasma T₁ was maintained below 250 [4]: 40 min | plasma T₁ ([4]; 0 min (baseline)): 1600 ms | plasma T₂ ([4]; 0 min (baseline)): 447 ms | plasma T₁ ([4]; 10 min): 58 ms | plasma T₂ ([4]; 10 min): 42 ms | plasma T₁ ([4]; 20 min): 102 ms | plasma T₂ ([4]; 20 min): 65 ms | plasma T₁ ([4]; 30 min): 156 ms | plasma T₂ ([4]; 30 min): 110 ms | plasma T₁ ([4]; 40 min): 224 ms | plasma T₂ ([4]; 40 min): 156 ms | plasma T₁ ([4]; 50 min): 259 ms | plasma T₂ ([4]; 50 min): 180 ms | plasma T₁ ([4]; 60 min): 323 ms | plasma T₂ ([4]; 60 min): 205 ms | plasma T₁ ([4]; 70 min): 453 ms | plasma T₂ ([4]; 70 min): 257 ms | plasma T₁ ([4]; 80 min): 550 ms | plasma T₂ ([4]; 80 min): 293 ms | plasma T₁ ([4]; 90 min): 625 ms | plasma T₂ ([4]; 90 min): 295 ms | stability after addition of a NaOH solution [5]: the solution remained clear with no discoloration or formation of a precipitate | T₂ value ([6]; 94 µM final concentration, 37°C): 184 ± 12 ms | T₁ value ([6]; 94 µM final concentration, 37°C, triplicate): 227 ± 3 ms | R₁ ([6]; 37°C): 46.9 mM⁻¹ s⁻¹ | R₂ ([6]; 37°C): 57.8 mM⁻¹ s⁻¹ | T₁ changed by (repeat measurement) [6, 11]: 2% | T₂ changed by (repeat measurement) [6, 11]: 2% | T₂ relaxivity in plasma, fold greater than GdDTPA ([6]; versus GdDTPA): 12.0 fold | T₁ relaxivity in plasma, fold greater than GdDTPA ([6]; versus gadolinium diethylenetriaminepentaacetic acid chelate (GdDTPA)): 9.8 fold | spin-lattice (T₁) relaxation value [7, 12]: 109 ± 5 ms | spin-spin (T₂) relaxation value [7, 12]: 26 ± 1 ms | millimolar relaxivity for T₁ ([7]; in water, calculated from T₁ and concentration): 9.27 mM⁻¹ s⁻¹ | millimolar relaxivity for T₂ ([7]; in water, calculated from T₂ and concentration): 38.9 mM⁻¹ s⁻¹
